Data as given in patent US4529737A, “Analgesic and anti-inflammatory arylalkanoic acid phthalidyl esters and pharmaceutical compositions thereof” (priority 1979, dated 1985).
Read-outs that look alike come from different tables or passages of the source.

Tests used:
[1] = carrageenin-induced rat paw edema test (anti-inflammatory activity); type: in vivo; set-up: unit not given here; details: oral, one hour before 2% carrageenin, paw volume 5 hours after, values marked * (I, V, VI, VII, VIII) are statistically significant
Text: For the determination of the anti-inflammatory activity, the carrageenin-induced rat paw edema test, as a modification of the method reported by C. A. Winth et al. (Proc. Soc. Exptl. Biol. Med., 111, 544; 1962) has been used. This method involves the reduction of the edema caused by the injection of a 2% carrageenin solution in the rat paw. The compounds under examination have been administered by oral route one hour before the injection of the edemigenic agent. The volume of the rat paw has been measured by a plethismometer before and 5 hours after the injection of the carrageenin.

[2] = ulcerogenic activity in rats (DU50); details: rat, in vivo
Text: The ulcerogenic activity is expressed as DU50 in rats according to the method described by Dabrodie et al (Science, 170, 183; 1970).

[3] = head DL50*: data statistically significant
[4] = tail compression test in mice (analgesic activity); type: in vivo, mouse; set-up: unit not given here; details: values marked * (I, II, III, VII) are statistically significant
Text: The tail compression test has been carried out in mice according to the method described by C. Bianchi (Brit. J. Pharmacol., 11, 104; 1956) by determining the time in seconds between the algic stimulation and the reaction of the mouse.

in vivo [5] = details: rat
in vivo [6] = details: mouse
[7] = rats, head DU50*: data statistically significant, read-out: DU50 ulcerogenic activity

SMILES | Anti-inflammatory activity DE50 [1] | TD50 [2] [mg/kg] | DL50 acute toxicity, rat [3] [mg/kg] | Analgesic activity DE50 [4] | LD50 (in vivo [5]) [mg/kg] | LD50 (in vivo [6]) [mg/kg] | TD50 [2, 7] [mg/kg]
CC(C)Cc1ccc(C(C)C(=O)O)cc1 (stereo not drawn) [Compound I, 2-(4-isobutylphenyl)propionic acid, reference compound] | 59.14 | 85.9 | 1480.00 | 5.28 | – | – | –
CC(C)Cc1ccc(C(C)C(=O)OC2OC(=O)c3ccccc32)cc1 (stereo not drawn) [Compound IA, phthalidyl 2-(4-isobutylphenyl)propionate] | 4.30 | 144 | – | 2.08 | 2180 | 1540 | –
COc1ccc2cc([C@H](C)C(=O)O)ccc2c1 [Compound II, d-2-(6-methoxy-2-naphthyl)propionic acid, reference compound] | 16.36 | – | – | 21.90 | – | – | 78.7
COc1ccc2cc(C(C)C(=O)OC3OC(=O)c4ccccc43)ccc2c1 (stereo not drawn) [Compound IIA, phthalidyl d-2-(6-methoxy-2-naphthyl)propionate] | 14.82 | 133 | – | 5.81 | 1060 | 2140 | –
CC(C(=O)O)c1cccc(C(=O)c2ccccc2)c1 (stereo not drawn) [Compound III, 2-(3-benzoylphenyl)propionic acid, reference compound] | 4.36 | – | – | 3.01 | – | – | 31.5
CC(C(=O)OC1OC(=O)c2ccccc21)c1cccc(C(=O)c2ccccc2)c1 (stereo not drawn) [Compound IIIA, phthalidyl 2-(3-benzoylphenyl)propionate] | 5.15 | 76.7 | – | 1.34 | 342 | 514 | –
CC(C(=O)O)c1ccc(N2Cc3ccccc3C2=O)cc1 (stereo not drawn) [Compound IV, 2-[4-(1-oxo-2-isoindolinyl)phenyl]propionic acid, reference compound] | 5.45 | 51.1 | – | 2.58 | 62.3 | 536 | –
CC(C(=O)OC1OC(=O)c2ccccc21)c1ccc(N2Cc3ccccc3C2=O)cc1 (stereo not drawn) [Compound IVA, phthalidyl 2-[4-(1-oxo-2-isoindolinyl)phenyl]propionate] | 4.45 | 116 | – | 2.18 | 234 | 987 | –
C=CCOc1ccc(CC(=O)O)cc1Cl [Compound V, 4-allyloxy-3-chlorophenylacetic acid, reference compound] | 1058.45 | 214 | – | 2.43 | – | – | –
C=CCOc1ccc(CC(=O)OC2OC(=O)c3ccccc32)cc1Cl (stereo not drawn) [Compound VA, phthalidyl 4-allyloxy-3-chlorophenylacetate] | 117.34 | 380 | – | 2.50 | 1770 | 2060 | –
O=C(O)Cc1ccccc1Nc1c(Cl)cccc1Cl [Compound VI, 2-(2,6-dichloroanilino)phenylacetic acid, reference compound] | 189.54 | – | – | 3.81 | – | – | 13.1
O=C(Cc1ccccc1Nc1c(Cl)cccc1Cl)OC1OC(=O)c2ccccc21 (stereo not drawn) [Compound VIA, phtalidyl 2-(2,6-dichloroanilino)phenylacetate] | 144.21 | 26.1 | – | 4.33 | 342 | 593 | –
O=C(O)CCC(=O)c1ccc(-c2ccccc2)cc1 [Compound VII, 4-(4-biphenylyl)-4-oxobutyric acid, reference compound] | 30.53 | 78.7 | – | 4.02 | – | – | –
O=C(CCC(=O)c1ccc(-c2ccccc2)cc1)OC1OC(=O)c2ccccc21 (stereo not drawn) [Compound VIIA, phthalidyl 4-(4-biphenylyl)-4-oxobutyrate] | 20.08 | 146 | – | 2.95 | 1380 | 1400 | –
O=C(O)Cc1ccc(-c2ccccc2)cc1 [Compound VIII, 4-biphenylylacetic acid, reference compound] | 21.79 | 65.3 | – | 3.07 | 635 | 750 | –
O=C(Cc1ccc(-c2ccccc2)cc1)OC1OC(=O)c2ccccc21 (stereo not drawn) [Compound VIIIA, phtalidyl 4-biphenylylacetate] | 13.28 | 186 | – | 2.78 | 1170 | 1410 | –
